This assay addresses T1, Coagulation factor XII (Homo sapiens, UniProt P00748).
T1 sequence (P00748 whole entry): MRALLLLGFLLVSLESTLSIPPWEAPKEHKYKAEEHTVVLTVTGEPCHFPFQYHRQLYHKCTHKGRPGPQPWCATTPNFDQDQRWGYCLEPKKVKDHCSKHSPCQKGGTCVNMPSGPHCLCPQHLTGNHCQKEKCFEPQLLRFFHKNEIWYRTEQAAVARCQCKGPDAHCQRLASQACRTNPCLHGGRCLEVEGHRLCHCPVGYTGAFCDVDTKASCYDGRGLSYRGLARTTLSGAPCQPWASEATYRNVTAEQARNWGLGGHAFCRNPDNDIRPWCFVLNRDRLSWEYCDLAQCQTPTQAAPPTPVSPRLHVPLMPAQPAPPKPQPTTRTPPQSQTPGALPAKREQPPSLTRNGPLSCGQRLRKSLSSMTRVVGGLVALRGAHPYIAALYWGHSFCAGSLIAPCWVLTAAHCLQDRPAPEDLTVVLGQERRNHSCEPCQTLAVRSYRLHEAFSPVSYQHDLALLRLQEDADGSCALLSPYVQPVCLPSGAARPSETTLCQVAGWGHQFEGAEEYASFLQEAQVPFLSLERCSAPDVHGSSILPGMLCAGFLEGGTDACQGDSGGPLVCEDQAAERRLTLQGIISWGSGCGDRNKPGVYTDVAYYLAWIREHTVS
In words: Factor XIIa assay: Factor XIIa activity determinations were made in 50 mM HEPES buffer containing 150 mM NaCl, 5 mM CaCl2, and 0.1% PEG 8000 (polyethylene glycol; JT Baker or Fisher Scientific) at pH 7.4. Determinations were made using purified human Factor XIIa at a final concentration of […] (Sekisui Diagnostics) and the synthetic substrate, n-Acetyl-Lys-Pro-Arg-AFC, TFA salt (Sigma # C6608) at a concentration of 100 μM.

2 compounds from ChEMBL document CHEMBL5728478, “Factor XIIa inhibitors” (2021) can be followed below.

For the compound `O=C(NCc1cccs1)[C@H]1CN(C(=O)C(CC2CCNCC2)NC2CCCCC2)CC[C@H]1NC(=O)N1CCC2(CC1)CC2` (some centres not stated), the IC50 was 82.9 nM.
Under `C[N+](C)(C)CCCC[C@@H](NC1CCCCC1)C(=O)N1CC[C@@H](NC(=O)N2CCC3(CC2)CC3)[C@@H](C(=O)NCc2ccccc2)C1` stands 5 nM.
